From patent publication US20080070888A1, “AZETIDINE AND AZETIDONE DERIVATIVES USEFUL IN TREATING PAIN AND DISORDERS OF LIPID METABOLISM” (priority 2006, published 2008)
Counter-ions that a name gives are not always drawn.

Target: T1, CaV3.2 (Homo sapiens, UniProt O95180)
T1 construct: expressed in transfected cells; host or cells: HEK cells, stably transfected; human Kir2.1 co-expressed
Test: CaV3.2 assay: functional evaluation of T-type calcium currents (IonWorks HT screen for hCaV3.2 / conventional whole cell patch clamp) in stably transfected HEK cells
Format: cell-based
Description: Functional evaluation of voltage-gated ion channels was used to determine potency and/or single concentration efficacy of proprietary compounds. Two different methodologies were used to measure ion currents: the IonWorks HT (Molecular Devices, Sunnyvale, Calif.) a moderate throughput voltage clamp screening platform that utilizes 96-well compound plates and conventional whole cell patch clamp for lower throughput, higher fidelity determinations.
HEK cells were transiently transfected and then selected for stable heterologous expression of different channel proteins of interest. Calcium channel cell lines expressed a resting potassium current, human Kir2.1, and the pore forming α-subunit of voltage-gated calcium channels. In the case of Cav2.1 cells the auxiliary subunit, β2a, was also expressed. Calcium channel lines that were used to generate the data in this document expressed either human Cav3.2, rat Cav3.2 or human Cav2.1. The human heart sodium channel, hNav1.5, was stably expressed in CHO cells. These cells were licensed from the University of Pennsylvania.
Cell lines were grown at 37° C. in humidified incubators, equilibrated with 95% air/5% CO2. CHO cells were grown in Ham's F-12 medium. HEK cells were grown in DMEM. All media were supplemented with 10% heat-inactivated fetal bovine serum, penicillin, streptomycin and appropriate selection antibiotics (zeocin, geneticin and/or hygromycin). Cells were passaged when 80% confluent or less.
Ionworks Screen for hCaV3.2
The extracellular buffer for experiments using this instrument contained the following (mM) (NaCl 125, HEPES 10, KCl 5.4, CaCl2 1.8, MgCl2 1.8, 0.2 BaCl2 pH 7.35). […]
Experiments were performed at room temperature. […] During this time leak currents were measured during a step to −110 mV (200 milliseconds). […]
T-type currents were measured as the peak inward current minus the current at the end of the 250 msec step to −20 mV. […] After incubation with compound for 10 minutes currents were measured again. […] For each compound, 8-point concentration-effect relationships were measured with ½ log serial dilutions. […]

T1 sequence (O95180 whole entry): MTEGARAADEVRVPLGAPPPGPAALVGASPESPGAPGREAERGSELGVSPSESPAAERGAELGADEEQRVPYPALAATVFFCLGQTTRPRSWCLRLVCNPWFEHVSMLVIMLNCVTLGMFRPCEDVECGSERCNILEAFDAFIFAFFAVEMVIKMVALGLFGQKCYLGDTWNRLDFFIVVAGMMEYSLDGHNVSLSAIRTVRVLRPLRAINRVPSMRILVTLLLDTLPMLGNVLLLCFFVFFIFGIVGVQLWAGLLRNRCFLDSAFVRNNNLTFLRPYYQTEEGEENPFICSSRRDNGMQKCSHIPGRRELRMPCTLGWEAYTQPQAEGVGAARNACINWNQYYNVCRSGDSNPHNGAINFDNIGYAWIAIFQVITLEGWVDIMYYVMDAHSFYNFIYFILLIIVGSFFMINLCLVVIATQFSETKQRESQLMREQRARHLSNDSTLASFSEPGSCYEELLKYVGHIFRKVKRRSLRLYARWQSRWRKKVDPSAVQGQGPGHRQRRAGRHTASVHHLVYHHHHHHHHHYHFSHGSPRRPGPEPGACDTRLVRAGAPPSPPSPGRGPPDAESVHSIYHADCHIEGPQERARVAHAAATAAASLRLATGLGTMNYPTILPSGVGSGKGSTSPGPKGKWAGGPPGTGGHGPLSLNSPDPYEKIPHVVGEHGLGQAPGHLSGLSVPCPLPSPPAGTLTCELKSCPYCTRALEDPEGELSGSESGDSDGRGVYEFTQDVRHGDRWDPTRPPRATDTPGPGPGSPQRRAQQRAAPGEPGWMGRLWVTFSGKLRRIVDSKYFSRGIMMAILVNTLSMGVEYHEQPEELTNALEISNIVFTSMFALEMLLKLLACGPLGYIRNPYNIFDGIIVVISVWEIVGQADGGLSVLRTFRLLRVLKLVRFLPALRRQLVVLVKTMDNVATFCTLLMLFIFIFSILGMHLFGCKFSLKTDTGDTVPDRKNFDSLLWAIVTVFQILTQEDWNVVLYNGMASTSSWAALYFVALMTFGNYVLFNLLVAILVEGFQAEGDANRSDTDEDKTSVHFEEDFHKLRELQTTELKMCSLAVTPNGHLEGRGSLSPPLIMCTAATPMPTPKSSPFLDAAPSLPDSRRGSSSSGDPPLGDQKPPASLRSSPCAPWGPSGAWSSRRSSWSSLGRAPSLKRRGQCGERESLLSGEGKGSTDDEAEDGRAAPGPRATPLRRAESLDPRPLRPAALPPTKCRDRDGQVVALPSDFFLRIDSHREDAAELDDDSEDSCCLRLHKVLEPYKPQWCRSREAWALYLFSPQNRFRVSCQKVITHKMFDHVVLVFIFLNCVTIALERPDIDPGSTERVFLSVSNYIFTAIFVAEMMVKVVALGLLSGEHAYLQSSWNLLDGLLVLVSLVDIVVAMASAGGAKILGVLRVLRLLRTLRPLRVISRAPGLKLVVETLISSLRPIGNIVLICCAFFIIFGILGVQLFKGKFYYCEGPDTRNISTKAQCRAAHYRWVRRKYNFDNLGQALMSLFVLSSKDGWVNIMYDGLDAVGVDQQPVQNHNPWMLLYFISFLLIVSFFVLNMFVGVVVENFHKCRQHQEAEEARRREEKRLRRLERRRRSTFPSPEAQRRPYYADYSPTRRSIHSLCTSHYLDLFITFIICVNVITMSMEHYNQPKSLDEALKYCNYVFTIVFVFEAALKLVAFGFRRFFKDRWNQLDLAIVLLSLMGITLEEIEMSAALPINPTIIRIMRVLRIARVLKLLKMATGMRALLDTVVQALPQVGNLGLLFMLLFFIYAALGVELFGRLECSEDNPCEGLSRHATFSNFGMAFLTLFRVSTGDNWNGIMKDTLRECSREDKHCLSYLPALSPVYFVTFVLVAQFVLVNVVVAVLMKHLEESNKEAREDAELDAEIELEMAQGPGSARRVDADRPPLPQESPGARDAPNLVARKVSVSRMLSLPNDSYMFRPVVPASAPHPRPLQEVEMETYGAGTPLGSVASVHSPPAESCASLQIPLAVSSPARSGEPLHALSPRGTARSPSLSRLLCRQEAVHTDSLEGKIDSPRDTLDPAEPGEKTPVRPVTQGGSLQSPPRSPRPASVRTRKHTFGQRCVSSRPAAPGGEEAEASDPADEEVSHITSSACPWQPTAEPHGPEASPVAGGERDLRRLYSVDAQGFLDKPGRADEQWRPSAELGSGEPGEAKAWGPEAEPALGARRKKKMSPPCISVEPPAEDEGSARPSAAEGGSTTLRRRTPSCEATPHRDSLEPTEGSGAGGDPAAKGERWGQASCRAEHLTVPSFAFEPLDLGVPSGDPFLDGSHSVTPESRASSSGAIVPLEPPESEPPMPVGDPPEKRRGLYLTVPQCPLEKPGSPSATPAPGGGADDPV

IC50 | SMILES
0.212 µM | CC(C)N1CC2(CCN(c3nc4cc(F)c(C(F)(F)F)cc4[nH]3)CC2)C1c1ccc(Cl)cc1 (stereo not drawn) [Example 2]
4.99 µM | CC(C)N1CC2(CCN(c3ccccn3)CC2)C1c1ccc(Cl)cc1 (stereo not drawn) [Example 3, 1-(4-Chlorophenyl)-2-(1-methylethyl)-7-(2-pyridinyl)-2,7-diazaspiro[3.5]nonane, formic acid salt]
8.63 µM | CC(C)N1CC2(CCN(c3ncccn3)CC2)C1c1ccc(Cl)cc1 (stereo not drawn) [Example 4, 1-(4-Chlorophenyl)-2-(1-methylethyl)-7-(2-pyrimidinyl)-2,7-diazaspiro[3.5]nonane, formic acid salt]
